Reference: publication PMC4957513, “Functional Characterization of a Hexose Transporter from Root Endophyte Piriformospora indica” (Frontiers in Microbiology, 2016)

Tests used:
PiHXT5 [1] = target: T1, PiHXT5 (Serendipita indica, UniProt G4TIR7); test: competition of […]-glucose uptake in yeast EBY.VW4000; assay type: cell-based; conditions: 25 μM 14C-glucose, five-fold excess of unlabelled sugar, 1 min, 30 °C; intact cells
T1 construct: gene PIIN_05137

PiHXT5 [2] = target: T1, PiHXT5; test: […]-glucose uptake in yeast EBY.VW4000, Michaelis-Menten fit; assay type: cell-based; conditions: pH 6.5, 50 mM potassium phosphate, 0.6 M sorbitol; intact cells; labelled compound; H+ symport; read-out: apparent Km

T1 sequence (G4TIR7 entry or part of it): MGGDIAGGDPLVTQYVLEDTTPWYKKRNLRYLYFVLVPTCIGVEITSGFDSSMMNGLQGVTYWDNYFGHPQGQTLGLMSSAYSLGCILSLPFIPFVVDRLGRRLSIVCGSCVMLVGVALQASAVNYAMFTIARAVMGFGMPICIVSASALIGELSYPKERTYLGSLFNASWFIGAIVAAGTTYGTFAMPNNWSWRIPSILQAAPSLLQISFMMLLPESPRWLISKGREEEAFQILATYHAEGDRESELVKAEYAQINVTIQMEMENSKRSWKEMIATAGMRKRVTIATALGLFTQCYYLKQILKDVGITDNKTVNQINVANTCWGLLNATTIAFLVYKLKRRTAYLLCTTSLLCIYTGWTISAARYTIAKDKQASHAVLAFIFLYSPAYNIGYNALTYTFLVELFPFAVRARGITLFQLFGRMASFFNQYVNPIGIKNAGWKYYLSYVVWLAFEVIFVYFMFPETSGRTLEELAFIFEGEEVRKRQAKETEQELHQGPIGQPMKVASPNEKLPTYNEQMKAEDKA

Row | Km (PiHXT5 [2]) [µM] | Compound | % of control 14C-glucose uptake at five-fold excess (PiHXT5 [1])
1 | – | OCC1(O)OC[C@@H](O)[C@@H](O)[C@@H]1O (stereo partly drawn) [D-fructose] | PiHXT5 is able to transport Glc, Fru, Xyl, Man, and Gal with decreasing affinity
2 | – | OC[C@H]1OC(O)[C@H](O)[C@@H](O)[C@H]1O (stereo partly drawn) [D-galactose] | PiHXT5 is able to transport Glc, Fru, Xyl, Man, and Gal with decreasing affinity
3 | 2560 ± 180 | OC[C@H]1OC(O)[C@H](O)[C@@H](O)[C@@H]1O (stereo partly drawn) [D-glucose] | –
4 | – | OC[C@H]1OC(O)[C@@H](O)[C@@H](O)[C@@H]1O (stereo partly drawn) [D-mannose] | PiHXT5 is able to transport Glc, Fru, Xyl, Man, and Gal with decreasing affinity
5 | – | OC1OC[C@@H](O)[C@H](O)[C@H]1O (stereo partly drawn) [D-xylose] | PiHXT5 is able to transport Glc, Fru, Xyl, Man, and Gal with decreasing affinity
